≈ marks a conversion by molar mass, not a printed value.

In data set [1] the test system is P388 murine leukemia. The data set can be described thus: In vivo P388 murine leukemia model, ip implant / ip treatment. On the set-up: species or system murine (CDF1 female mice). To be noted: for median survival time: untreated controls 10 days. As for the experimental part: (§1) BMY-42448 was also tested in vivo in the P388 murine leukemia model. When 1×10^6 leukemia cells are implanted ip into CDF1 female mice, the median survival time for untreated controls was 10 days. […] Mice treated with 45 or 15 mg/kg BMY-42448 on the same schedule had median survival time of 13.5 and 13 days, respectively. Each drug treatment group consisted of 4 mice. The positive control reference drug, olivomycin A, was dosed at 0.4 and 0.2 mg/kg once a day for 5 days beginning one day after implant, with median survival times of 16.5 and 16 days, respectively. Both drugs were administered via the intraperitoneal route. Thus, BMY-42448 was active in the ip/ip P388 model with a maximum tolerated dose of 45 mg/kg.

For data set [2], the system named is P388 tumor. Description: iv-implanted P388 tumor model. Type of data set: in vivo, murine (CDF1 female mice). As for the experimental part:
BMY-42448 was tested in an iv-implanted P388 tumor model. In this model 1×10^6 cells are implanted intravenously in CDF1 female mice. […] Mitomycin C given iv once at 3.2 mg/kg on the day after tumor implant extended median survival to 12 days after tumor implant. BMY-42448 was toxic when administered iv at 10 mg/kg every other day for 3 doses beginning one day after tumor implant.

Data set [3] is described as follows: In vivo P388 murine leukemia model, ip implant / ip treatment. On the set-up: species or system murine (CDF1 female mice). To be noted: mouse, p388 leukemia model; ip once a day for 5 days; read-out: maximum tolerated dose. As for the experimental part: as §1
The test system of data set [4] is HCT-116 colon. The data set can be described thus: In vitro cytotoxicity, crystal violet staining. Type of data set: cell-based, human. The conditions noted are these: for IC50: Homo sapiens, 72 h, HCT-116 colon, 3 days with drug. As for the experimental part: (§2) A 150 μl aliquot of culture media containing 3750 cells was plated into each well of a 96 well microtiter plate on day 0 and allowed to attach by incubation for 24 hours at 37° C. in a 5% carbon dioxide atmosphere. Drugs were then added to the top row of the wells and serially diluted down the plate (except for the untreated control column on each plate). The cells and drug were incubated together as above for 3 days. Following incubation, dead unattached cells and media were removed by inverting the plate. Cells that are undamaged by the drug remain attached to the plate. […] The fixing solution was removed by inverting the plate and the plates were air-dried.

Data set [5] concerns B-16 melanoma. The data set can be described thus: In vitro cytotoxicity, crystal violet staining. It counts as cell-based, murine. The conditions noted are these: for IC50: Mus musculus, B16, 72 h, B-16 melanoma, 3 days with drug. As to the method: as §2

Turning to olivomycin A [reference compound], the values for the median survival time in data set [1] (0.2 mg/kg ip once a day for 5 days) and in data set [1] (0.4 mg/kg ip once a day for 5 days) were 16 days and 16.5 days, respectively.

What is called IC50 is the concentration at which inhibition is half-maximal. Low values mean inhibition by little substance, high ones a need for much substance. Turning to `CCC1CC23OC(=O)C(=C2O)C(=O)C2(CC)C(C=CC4C(OC5CC(O)C(NC(=O)c6[nH]c(Cl)cc6Cl)C(C)O5)C(C)CCC42)CC=CCC=CC3(C)C=C1C(=O)O` (stereo not shown) [BMY-42448], the median life span is listed as 8 days in data set [2] (1.25 mg/kg iv every other day for 3 doses, untreated control 8 days); 8 days in data set [2] (2.5 mg/kg iv every other day for 3 doses, untreated control 8 days); 8 days in data set [2] (5 mg/kg iv every other day for 3 doses, untreated control 8 days). In data set [2] (10 mg/kg iv every other day for 3 doses beginning one day after tumor implant), the toxicity result is on record as “toxic”. Also, the “activity in iv-implanted P388 model” value in data set [2] (5, 2.5 or 1.25 mg/kg iv every other day for 3 doses) was “inactive”. The median survival time in data set [1] (15 mg/kg ip once a day for 5 days) was 13 days; in data set [1] (45 mg/kg ip once a day for 5 days), 13.5 days. Also, in data set [1] (135 mg/kg ip once a day for 5 days beginning 1 day after tumor implant), the “outcome (drug toxicity)” value is given as “died of drug toxicity”. Further, the “activity in the ip/ip P388 model” value in data set [1] (ip implant, ip treatment) is listed as “active”. Further, the MTD in data set [3] was determined as 45 mg/kg. Moreover, the 50% inhibitory concentration (IC50) is 0.25 µg/mL (≈ 0.297 µM) in data set [4] and 16 µg/mL (≈ 19 µM) in data set [5]. Moreover, in data set [4] (compared with mitomycin C), the “activity on the HCT-116 colon cancer line compared with reference drug” value is reported as “equivalent to that of mitomycin C”. In data set [5] (compared with cisplatin), the “activity on the B-16 melanoma cell line compared with reference drug” value was “equal to that of cisplatin”.

The molecule `CO[C@@]12[C@H](COC(N)=O)C3=C(C(=O)C(C)=C(N)C3=O)N1C[C@@H]1N[C@@H]12` [Mitomycin C, reference compound] returned a median survival in data set [2] (3.2 mg/kg iv once on the day after tumor implant, untreated control 8 days) of 12 days. The figures for the IC50 in data set [4] and in data set [5] were 0.25 µg/mL (≈ 0.748 µM) and 0.98 µg/mL (≈ 2.93 µM), respectively.

For the origin of these results see patent US5270186A, “Antitumor antibiotic BMY-42448” (Bristol-Myers Squibb Company, priority 1991, dated 1993).
